Measurements as given in article PMC8861568, “Identification of (Z)-2-benzylidene-dihydroimidazothiazolone derivatives as tyrosinase inhibitors: Anti-melanogenic effects and in silico studies” (Computational and Structural Biotechnology Journal, 2022).
“Also recorded” adds a separate entry of the source.

Columns and labels:
[1] = system: mushroom tyrosinase (mTYR); assay: Mushroom tyrosinase inhibition assay; format: biochemical, Agaricus bisporus; details: for IC50: mushroom tyrosinase, L-tyrosine substrate
Procedure: The tyrosinase inhibitory activity assays on the synthesized DHIT derivatives 1a – 1 k was performed using mushroom tyrosinase (mTYR), as previously described with minor modification. […] The optical densities of dopachrome produced during incubation were measured using a microplate reader (VersaMax™, Molecular Devices, Sunnyvale, CA, USA) at 492 nm. […] All experiments were conducted in triplicate. To calculate the tyrosinase inhibitory activities, the following formula was used: % inhibition = [(1− (A/B)) × 100], where A is test sample optical density and B is the optical density of the non-treated control.
IC50 values were calculated by plotting linear regression curves of percentage inhibitions versus derivative concentrations. The negative control was obtained by adding dimethyl sulfoxide (DMSO) instead of a DHIT derivative.

B16F10 cells [2] = assay: Cell viability, EZ-cytox assay; format: cell-based, murine; details: up to 20 μM, 48 h
Procedure: Before examining inhibitory effects of compounds 1b and 1f on cellular tyrosinase activity, we examined their cytotoxic effects on B16F10 murine cells using the EZ-cytox assay (Daeil Lab Service, Seoul, Korea). After B16F10 cells had been cultured for 24 h, cells were treated with different concentrations (0, 1, 2, 5, 10 or 20 μM) of 1b or 1f for 48 h in a humidified atmosphere. Optical densities (ODs) were measured at 450 nm using a microplate reader.
Cell viability assays were performed at 37 °C as previously described with minor modification using the EZ-cytox assay. In brief, B16F10 melanoma cells were seeded in 96-well plates at a density of 1 × 10^4 cells/well and incubated in a humidified 5% CO2 atmosphere for 24 h at 37 °C. Cells were then treated with compounds 1b or 1f at 0, 1, 2, 5, 10, or 20 µM/well for 48 h. EZ-cytox solution (10 µL) (Daeil Lab Service, Seoul, Korea) was then added to each well and incubated for 1 h at 37 °C. Cell viabilities were assessed by measuring absorbances at 450 nm using a microplate reader (VersaMax^TM, Molecular Devices, Sunnyvale, CA, USA). All experiments were independently conducted three times.

B16F10 cells [3] = assay: Extracellular melanin (melanin level in medium) of B16F10 cells; format: cell-based, murine; details: 48 h; for melanin levels in media compared with kojic acid: α-MSH + IBMX; for melanin levels in media: 5, 10, 20 μM, α-MSH 1 μM + IBMX 200 μM
Procedure: To determine whether melanin levels in cell culture media were influenced by compounds 1b or 1f, melanin contents in B16F10 cell culture media after treatments with derivatives at different concentrations in the presence of α -MSH and IBMX for 48 h were analyzed by measuring optical densities at 405 nm using a microplate reader.
The inhibitory effects of compounds 1b and 1f on intracellular melanin contents were investigated as previously described. B16F10 cells were seeded at a density of 1 × 10^5 cells/well in 6-well plates and incubated in a humidified 5% CO2 atmosphere for 24 h at 37 °C. […] For extracellular melanin contents, the optical density of the cell culture media was directly measured at 405 nm. On the other hand, for intracellular melanin contents, the following procedure was performed. Briefly, after washing twice with PBS, adherent cells were detached by incubation in Trypsin/EDTA for 1 min. Pellets were dissolved in 100 μL of 1 N NaOH and then incubated for 1 h at 60 °C to dissolve the melanin. Intracellular melanin was quantified by measuring optical densities at 405 nm using a microplate reader (VersaMax^TM, Molecular Devices, Sunnyvale, CA, USA). Results were normalized versus cell pellet total protein using BCA protein assay reagent using BSA as the standard (Thermo Scientific, Rockford, IL, USA). The intracellular melanin contents were calculated using the following equation: (ΔODsample/ΔODcontrol) × 100%; where ΔODsample = the optical density of the test compound, and ΔODcontrol = the optical density of control. Experiments were performed in triplicate.

Row | Structure (SMILES) | mushroom tyrosinase inhibition compared with kojic acid [1] | IC50 [1] | fold more potent tyrosinase inhibition than MHY773 ([1]; ratio of IC50 values) | cytotoxic effect on B16F10 cells (B16F10 cells [2]) | melanin levels in media compared with kojic acid (B16F10 cells [3]; 1b at 5 μM) | melanin levels in media (B16F10 cells [3]) | fold stronger tyrosinase inhibitor than kojic acid ([1]; ratio of IC50 values) | melanin levels in media compared with kojic acid (B16F10 cells [3]; 1f at 20 μM)
1 | O=c1/c(=C/c2ccc(O)cc2O)sc2n1CCN=2 [Compound 1b, (Z)-2-(2,4-Dihydroxybenzylidene)-5,6-dihydroimidazo[2,1-b]thiazol-3(2H)-one] | inhibited mTYR more than kojic acid | 0.88 ± 0.91 µM | ~3.3 fold | without perceptible cytotoxicity; also recorded: Neither 1b nor 1f had a significant cytotoxic effect | suppressed these increases more than kojic acid at 20 μM | significantly and concentration-dependently suppressed these increases |  | 
2 | COc1ccc(/C=c2\sc3n(c2=O)CCN=3)cc1O [Compound 1f, (Z)-2-(3-Hydroxy-4-methoxybenzylidene)-5,6-dihydroimidazo[2,1-b]thiazol-3(2H)-one] | inhibited mTYR more than kojic acid | 17.1 ± 1.01 µM |  | without perceptible cytotoxicity; also recorded: Neither 1b nor 1f had a significant cytotoxic effect |  | significantly and concentration-dependently suppressed these increases | 4.9 fold | suppressed these increases more than kojic acid at 20 μM
